Holding throughout (format): cell-based
Common to all, as to set-up: unit not given here

Experiment [1] concerns Chlorella protothecoides. Put plainly: Effect of hormone concentrations on growth rate, photoheterotrophic conditions, 48 hours. As to conditions: control 1.05 ± 0.020.
Experiment [2] deals with Scenedesmus obliquus. Described as above. The following applies: control 0.41 ± 0.042.
The test system of experiment [3] is Chlorella protothecoides. The experiment is described as follows: Effect of hormone concentrations on growth rate, heterotrophic conditions, 48 hours. As to conditions: control 1.54 ± 0.080.
Experiment [4] concerns Scenedesmus obliquus. The description is as above. As to conditions: control 0.35 ± 0.023.

Structures are written as SMILES.

Take `O=C(O)Cc1cccc2ccccc12` [1-Naphthaleneacetic acid, 1-naphthaleneacetic acid]: the growth rate amounted to 1.00 ± 0.058 with Chlorella protothecoides [1] (hormone 0.01 ng); 1.02 ± 0.050 with Chlorella protothecoides [1] (hormone 0.1 ng); 1.05 ± 0.035 in the experiment on Chlorella protothecoides [1] (hormone 1 ng); 1.07 ± 0.028 with Chlorella protothecoides [1] (hormone 10 ng); 1.16 ± 0.152 in the experiment on Chlorella protothecoides [1] (hormone 100 ng); 0.84 ± 0.087 in the experiment with Scenedesmus obliquus [2] (hormone 0.01 ng). The growth rate with Scenedesmus obliquus [2] (hormone 0.1 ng) is reported as 0.85 ± 0.042; in the experiment with Scenedesmus obliquus [2] (hormone 1 ng), 0.81 ± 0.042; in the experiment with Scenedesmus obliquus [2] (hormone 10 ng) it was 0.80 ± 0.141; in the experiment on Scenedesmus obliquus [2] (hormone 100 ng), 0.73 ± 0.046; with Chlorella protothecoides [3] (hormone 0.01 ng), 1.66 ± 0.140; in the experiment with Chlorella protothecoides [3] (hormone 0.1 ng), 1.54 ± 0.081. Besides, the growth rate in the experiment on Chlorella protothecoides [3] (hormone 1 ng) is listed as 1.62 ± 0.136; in the experiment with Chlorella protothecoides [3] (hormone 10 ng), 1.57 ± 0.028; in the experiment on Chlorella protothecoides [3] (hormone 100 ng), 1.62 ± 0.064; with Scenedesmus obliquus [4] (hormone 0.01 ng), 0.26 ± 0.042; in the experiment on Scenedesmus obliquus [4] (hormone 0.1 ng), 0.28 ± 0.011; in the experiment on Scenedesmus obliquus [4] (hormone 1 ng) it was 0.33 ± 0.020. Besides, the growth rate in the experiment with Scenedesmus obliquus [4] (hormone 10 ng) was 0.28 ± 0.099; in the experiment with Scenedesmus obliquus [4] (hormone 100 ng), 0.39 ± 0.053.
As to `O=C(O)COc1ccc(Cl)cc1Cl` [2,4-Dichlorophenoxyacetic, 2,4-dichlorophenoxyacetic acid], the growth rate in the experiment with Chlorella protothecoides [1] (hormone 0.01 ng) amounted to 1.09 ± 0.035; with Chlorella protothecoides [1] (hormone 0.1 ng), 1.08 ± 0.133; in the experiment on Chlorella protothecoides [1] (hormone 1 ng) it was 1.01 ± 0.035; in the experiment with Chlorella protothecoides [1] (hormone 10 ng) it was 1.08 ± 0.030; in the experiment on Chlorella protothecoides [1] (hormone 100 ng), 1.03 ± 0.069; with Scenedesmus obliquus [2] (hormone 0.01 ng), 0.42 ± 0.035. In addition, the growth rate is on record as 0.44 ± 0.000 with Scenedesmus obliquus [2] (hormone 0.1 ng); 0.47 ± 0.023 with Scenedesmus obliquus [2] (hormone 1 ng); 0.44 ± 0.028 in the experiment on Scenedesmus obliquus [2] (hormone 10 ng); 0.33 ± 0.042 in the experiment on Scenedesmus obliquus [2] (hormone 100 ng); 1.40 ± 0.061 in the experiment with Chlorella protothecoides [3] (hormone 0.01 ng); 1.53 ± 0.069 with Chlorella protothecoides [3] (hormone 0.1 ng). The growth rate was 1.43 ± 0.069 in the experiment on Chlorella protothecoides [3] (hormone 1 ng); 1.31 ± 0.087 in the experiment with Chlorella protothecoides [3] (hormone 10 ng); 1.50 ± 0.081 in the experiment on Chlorella protothecoides [3] (hormone 100 ng); 0.28 ± 0.030 with Scenedesmus obliquus [4] (hormone 0.01 ng); 0.23 ± 0.040 in the experiment with Scenedesmus obliquus [4] (hormone 0.1 ng); 0.31 ± 0.020 in the experiment with Scenedesmus obliquus [4] (hormone 1 ng). Moreover, the growth rate in the experiment with Scenedesmus obliquus [4] (hormone 10 ng) was determined as 0.24 ± 0.081; in the experiment with Scenedesmus obliquus [4] (hormone 100 ng), 0.23 ± 0.040.
Regarding `c1ccc(CNc2ncnc3nc[nH]c23)cc1` [6-Benzylaminopurine, 6-benzylaminopurine], the growth rate amounted to 1.00 ± 0.030 with Chlorella protothecoides [1] (hormone 0.01 ng); 1.12 ± 0.011 with Chlorella protothecoides [1] (hormone 0.1 ng); 1.07 ± 0.035 in the experiment on Chlorella protothecoides [1] (hormone 1 ng); 1.04 ± 0.083 in the experiment with Chlorella protothecoides [1] (hormone 10 ng); 1.08 ± 0.023 in the experiment on Chlorella protothecoides [1] (hormone 100 ng); 0.46 ± 0.056 in the experiment on Scenedesmus obliquus [2] (hormone 0.01 ng). For the same molecule, the growth rate in the experiment with Scenedesmus obliquus [2] (hormone 0.1 ng) turned out to be 0.37 ± 0.099; in the experiment with Scenedesmus obliquus [2] (hormone 1 ng), 0.47 ± 0.011; in the experiment on Scenedesmus obliquus [2] (hormone 10 ng) it was 0.47 ± 0.064; in the experiment with Scenedesmus obliquus [2] (hormone 100 ng), 0.52 ± 0.060; in the experiment on Chlorella protothecoides [3] (hormone 0.01 ng), 1.48 ± 0.121; in the experiment on Chlorella protothecoides [3] (hormone 0.1 ng), 1.54 ± 0.081. Besides, the growth rate was 1.50 ± 0.012 in the experiment with Chlorella protothecoides [3] (hormone 1 ng); 1.52 ± 0.117 in the experiment with Chlorella protothecoides [3] (hormone 10 ng); 1.46 ± 0.150 with Chlorella protothecoides [3] (hormone 100 ng); 0.28 ± 0.081 with Scenedesmus obliquus [4] (hormone 0.01 ng); 0.32 ± 0.061 with Scenedesmus obliquus [4] (hormone 0.1 ng); 0.39 ± 0.092 in the experiment on Scenedesmus obliquus [4] (hormone 1 ng). In addition, the growth rate amounted to 0.36 ± 0.092 with Scenedesmus obliquus [4] (hormone 10 ng) and 0.33 ± 0.104 in the experiment with Scenedesmus obliquus [4] (hormone 100 ng).
As to `C=C1C[C@]23C[C@@]1(O)CC[C@H]2[C@@]12C=C[C@H](O)[C@@](C)(C(=O)O1)[C@H]2[C@@H]3C(=O)O` [Gibberellic acid], the growth rate is reported as 1.06 ± 0.011 in the experiment on Chlorella protothecoides [1] (hormone 0.01 ng); 1.02 ± 0.046 with Chlorella protothecoides [1] (hormone 0.1 ng); 1.00 ± 0.030 with Chlorella protothecoides [1] (hormone 1 ng); 1.09 ± 0.122 in the experiment with Chlorella protothecoides [1] (hormone 10 ng); 1.10 ± 0.070 in the experiment with Chlorella protothecoides [1] (hormone 100 ng); 0.59 ± 0.064 in the experiment on Scenedesmus obliquus [2] (hormone 0.01 ng). Further, the growth rate came to 0.47 ± 0.081 with Scenedesmus obliquus [2] (hormone 0.1 ng); 0.56 ± 0.087 with Scenedesmus obliquus [2] (hormone 1 ng); 0.56 ± 0.141 with Scenedesmus obliquus [2] (hormone 10 ng); 0.51 ± 0.110 in the experiment with Scenedesmus obliquus [2] (hormone 100 ng); 1.52 ± 0.201 in the experiment with Chlorella protothecoides [3] (hormone 0.01 ng); 1.52 ± 0.151 in the experiment with Chlorella protothecoides [3] (hormone 0.1 ng). Further, the growth rate in the experiment on Chlorella protothecoides [3] (hormone 1 ng) is reported as 1.46 ± 0.090; with Chlorella protothecoides [3] (hormone 10 ng), 1.52 ± 0.099; in the experiment on Chlorella protothecoides [3] (hormone 100 ng), 1.46 ± 0.050; with Scenedesmus obliquus [4] (hormone 0.01 ng), 0.44 ± 0.083; with Scenedesmus obliquus [4] (hormone 0.1 ng) it was 0.50 ± 0.046; with Scenedesmus obliquus [4] (hormone 1 ng) it was 0.43 ± 0.020. Moreover, the growth rate in the experiment on Scenedesmus obliquus [4] (hormone 10 ng) is given as 0.36 ± 0.050; in the experiment on Scenedesmus obliquus [4] (hormone 100 ng), 0.42 ± 0.064.
Consider `O=C(O)Cc1c[nH]c2ccccc12` [Indole-3-acetic acid, indole-3-acetic acid], for which the growth rate amounted to 1.06 ± 0.030 with Chlorella protothecoides [1] (hormone 0.01 ng); 1.05 ± 0.019 in the experiment with Chlorella protothecoides [1] (hormone 0.1 ng); 0.97 ± 0.020 in the experiment with Chlorella protothecoides [1] (hormone 1 ng); 1.13 ± 0.019 in the experiment with Chlorella protothecoides [1] (hormone 10 ng); 1.02 ± 0.061 in the experiment with Chlorella protothecoides [1] (hormone 100 ng); 0.42 ± 0.020 in the experiment on Scenedesmus obliquus [2] (hormone 0.01 ng). Moreover, the growth rate stood at 0.47 ± 0.061 in the experiment with Scenedesmus obliquus [2] (hormone 0.1 ng); 0.49 ± 0.030 in the experiment with Scenedesmus obliquus [2] (hormone 1 ng); 0.49 ± 0.023 in the experiment with Scenedesmus obliquus [2] (hormone 10 ng); 0.62 ± 0.092 in the experiment on Scenedesmus obliquus [2] (hormone 100 ng); 1.62 ± 0.133 in the experiment with Chlorella protothecoides [3] (hormone 0.01 ng); 1.61 ± 0.072 in the experiment on Chlorella protothecoides [3] (hormone 0.1 ng). Further, the growth rate in the experiment with Chlorella protothecoides [3] (hormone 1 ng) came to 1.49 ± 0.122; with Chlorella protothecoides [3] (hormone 10 ng), 1.60 ± 0.099; in the experiment on Chlorella protothecoides [3] (hormone 100 ng), 1.60 ± 0.076; in the experiment with Scenedesmus obliquus [4] (hormone 0.01 ng), 0.23 ± 0.020; in the experiment on Scenedesmus obliquus [4] (hormone 0.1 ng), 0.36 ± 0.127; in the experiment with Scenedesmus obliquus [4] (hormone 1 ng), 0.42 ± 0.081. Moreover, the growth rate in the experiment with Scenedesmus obliquus [4] (hormone 10 ng) is on record as 0.47 ± 0.020; in the experiment on Scenedesmus obliquus [4] (hormone 100 ng), 0.41 ± 0.053.
Regarding `c1coc(CNc2ncnc3[nH]cnc23)c1` [Kinetin, kinetin], the growth rate in the experiment with Chlorella protothecoides [1] (hormone 0.01 ng) was 1.08 ± 0.023; with Chlorella protothecoides [1] (hormone 0.1 ng) it was 1.10 ± 0.042; with Chlorella protothecoides [1] (hormone 1 ng) it was 1.02 ± 0.011; in the experiment with Chlorella protothecoides [1] (hormone 10 ng) it was 1.18 ± 0.050; with Chlorella protothecoides [1] (hormone 100 ng), 1.19 ± 0.035; in the experiment on Scenedesmus obliquus [2] (hormone 0.01 ng), 0.57 ± 0.133. The growth rate in the experiment with Scenedesmus obliquus [2] (hormone 0.1 ng) is recorded as 0.73 ± 0.042; in the experiment with Scenedesmus obliquus [2] (hormone 1 ng), 0.92 ± 0.113; in the experiment on Scenedesmus obliquus [2] (hormone 10 ng), 0.37 ± 0.070; with Scenedesmus obliquus [2] (hormone 100 ng), 0.36 ± 0.060; in the experiment on Chlorella protothecoides [3] (hormone 0.01 ng) it was 1.60 ± 0.050; with Chlorella protothecoides [3] (hormone 0.1 ng), 1.50 ± 0.050. The growth rate in the experiment on Chlorella protothecoides [3] (hormone 1 ng) was found to be 1.44 ± 0.110; with Chlorella protothecoides [3] (hormone 10 ng) it was 1.60 ± 0.070; in the experiment with Chlorella protothecoides [3] (hormone 100 ng), 1.58 ± 0.061; in the experiment with Scenedesmus obliquus [4] (hormone 0.01 ng), 0.28 ± 0.061; with Scenedesmus obliquus [4] (hormone 0.1 ng), 0.26 ± 0.076; with Scenedesmus obliquus [4] (hormone 1 ng) it was 0.36 ± 0.042. For the same molecule, the growth rate with Scenedesmus obliquus [4] (hormone 10 ng) is 0.31 ± 0.028; in the experiment with Scenedesmus obliquus [4] (hormone 100 ng) it was 0.28 ± 0.076.
